Experimental findings from paper PMC4645630 (The Journal of Biological Chemistry, 2015) are described below.

Test [1] addresses T1, GCGR (Homo sapiens, UniProt P47871). Put plainly: Yeast growth reporter assay, GPA1/Gαi chimera strain expressing GCGR with vector. In kind it is cell-based. The arrangement: expressed in transfected cells; host or cells: HEK-293 (293T). How it is done:
(§1) General yeast procedures were performed as described previously ([17], [18]). […] Mammalian GPCRs and RAMPs were introduced to the yeast strains under the control of the GAPDH promoter using plasmids containing either ura3 (p426-GPD) or leu2 (p425-GPD). Plasmids were transformed in a 1:1 ratio to enable equal expression levels of both the RAMP and receptors. Transformation was achieved using the lithium acetate/single-stranded DNA/polyethylene glycol method as described previously ([20]). Positive transformants were selected and maintained on medium lacking uracil and leucine. Receptor signaling was measured using the yeast growth assay ([21]) adapted as described previously ([17]). Initially, cell growth was performed in SD−URA−LEU medium at 30 °C to select for only those cells expressing both plasmids. […] Fluorescence was measured on a TECAN Infinite M200 microplate reader (TECAN Ultra Evolution, Reading, UK).
(§2) Data were analyzed using Prism version 6.0e (GraphPad Software, San Diego, CA). […] Statistical differences were analyzed before data were normalized, using a Student's test or one-way analysis of variance (ANOVA) with Bonferroni's or Dunnett's multiple comparisons as appropriate, and p < 0.05 was considered significant.

The target of test [2] is T2, GCGR with RAMP2 (Homo sapiens, UniProt O60895+P47871).
T2 construct: expressed in transfected cells; host or cells: HEK-293 (293T)
Briefly: Yeast growth reporter assay, GPA1/Gαi chimera strain expressing GCGR and RAMP2. The format is cell-based. To be noted: Table 5, yeast GPA1/Gαi. How it is done:
(§3) General yeast procedures were performed as described previously ([17], [18]). […] Mammalian GPCRs and RAMPs were introduced to the yeast strains under the control of the GAPDH promoter using plasmids containing either ura3 (p426-GPD) or leu2 (p425-GPD). Plasmids were transformed in a 1:1 ratio to enable equal expression levels of both the RAMP and receptors. Transformation was achieved using the lithium acetate/single-stranded DNA/polyethylene glycol method as described previously ([20]). Positive transformants were selected and maintained on medium lacking uracil and leucine. Receptor signaling was measured using the yeast growth assay ([21]) adapted as described previously ([17]). Initially, cell growth was performed in SD−URA−LEU medium at 30 °C to select for only those cells expressing both plasmids. Cells were then cultured to remove basal activity in SD−URA−LEU−HIS medium overnight at 30 °C and assayed using fluorescein-di-β-D-glucopyranoside-supplemented medium in the presence of different concentrations of ligand (0.01 nM to 100 mM). Fluorescence was measured on a TECAN Infinite M200 microplate reader (TECAN Ultra Evolution, Reading, UK).
(§4) Data were analyzed using Prism version 6.0e (GraphPad Software, San Diego, CA). EC50 and Emax values were obtained through fitting of a three-parameter logistic equation. Relative efficacy (log τ) and equilibrium dissociation constants (log KA) were generated through use of an operational model for partial agonism ([23]). […] Statistical differences were analyzed before data were normalized, using a Student's test or one-way analysis of variance (ANOVA) with Bonferroni's or Dunnett's multiple comparisons as appropriate, and p < 0.05 was considered significant.

The target in test [3] is T2, GCGR with RAMP2. Put plainly: cAMP accumulation assay, HEK-293 cells co-expressing GCGR and RAMP2. The format is cell-based. To be noted: Table 3, cAMP. How it is done: as §4
Test [4] deals with T1, GCGR. Briefly: Yeast growth reporter assay, GPA1/Gαs chimera strain expressing GCGR with vector. The format is cell-based. Also on record: expressed in transfected cells; host or cells: HEK-293 (293T). How it is done:
as §1, §2
On the technique in general: In a reporter assay the amount or activity of a reporter protein is the signal.

In test [5] the target is T1, GCGR. Briefly: Whole cell competition binding with [125I]glucagon, GCGR without RAMP2. The arrangement: expressed in transfected cells. To be noted: no RAMP2. How it is done: Cells were seeded into 6-well plates and grown to 80% confluence before transfection with 1.5 μg of plasmid DNA and incubated for a further 24 h. Medium was then replaced with fresh DMEM, and cells were transferred onto a 96-well plate coated with poly-D-lysine and incubated for 24 h to achieve confluence prior to assay. […] For the assay, cells were washed in assay buffer, 0.1 nM of radioligand and various concentrations of the peptides were added, and the plate was incubated for 16 h at 4 °C. Following washing with ice-cold assay buffer, 100 μl of NaOH (0.1 M) was added to each well, and the plate was incubated for 5 min on ice. Cells were removed, and the plate was washed with 100 μl of HCl (0.1 M). Radioactivity was determined in 2 ml of Safefluor scintillant (PerkinElmer Life Sciences) using a liquid scintillation counter with a count time of 3 min/sample. Values were corrected for nonspecific binding as determined by the amount of radioligand detected bound to cells not expressing GCGR.

For test [6], the target named is T1, GCGR. Briefly: cAMP accumulation assay, HEK-293 cells expressing GCGR with vector control. The format is cell-based. Also on record: expressed in transfected cells; host or cells: HEK-293 (293T). How it is done: as §4
For orientation: Changes in cAMP serve as a functional read-out for many G protein-coupled receptors.

The target of test [7] is T2, GCGR with RAMP2. Put plainly: Whole cell competition binding with [125I]glucagon, GCGR with RAMP2. To be noted: whole cells, [125I]glucagon 0.1 nM, 16 h at 4 °C.
Test [8] deals with T2, GCGR with RAMP2. Put plainly: Yeast growth reporter assay, GPA1/Gαs chimera strain expressing GCGR and RAMP2. In kind it is cell-based. To be noted: Table 4, yeast GPA1/Gαs. How it is done:
as §3, §4

[9] abbreviates: GCGR + RAMP2, mean ± S.E., five repeats.
Setting [10] is: RAMP2, operational model relative to glucagon.
The mark [11] stands for this setting: RAMP2, percentage of glucagon response without RAMP co-expression.

T2 sequence (P47871 26-477): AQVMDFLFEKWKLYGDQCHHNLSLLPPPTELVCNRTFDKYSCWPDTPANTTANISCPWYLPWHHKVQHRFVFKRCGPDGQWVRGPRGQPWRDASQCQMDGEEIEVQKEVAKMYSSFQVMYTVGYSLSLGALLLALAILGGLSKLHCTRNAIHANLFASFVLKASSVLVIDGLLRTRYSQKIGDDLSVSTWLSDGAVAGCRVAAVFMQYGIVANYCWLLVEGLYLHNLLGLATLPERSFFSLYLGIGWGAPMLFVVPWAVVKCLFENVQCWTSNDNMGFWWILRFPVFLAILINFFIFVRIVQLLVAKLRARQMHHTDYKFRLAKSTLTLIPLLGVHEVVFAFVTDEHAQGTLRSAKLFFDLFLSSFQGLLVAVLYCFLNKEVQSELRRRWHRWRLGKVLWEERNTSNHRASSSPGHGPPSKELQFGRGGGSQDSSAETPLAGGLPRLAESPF
T2 sequence (O60895 43-175 partner): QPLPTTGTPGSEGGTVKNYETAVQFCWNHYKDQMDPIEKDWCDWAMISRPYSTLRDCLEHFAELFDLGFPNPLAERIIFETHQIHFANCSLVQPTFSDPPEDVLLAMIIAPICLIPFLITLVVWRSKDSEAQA
T1 sequence (P47871 26-477): as the sequence (P47871 26-477) above

Turning to `CCCCCCCCCCCCCCCC(=O)N[C@@H](CCC(=O)NCCCC[C@H](NC(=O)[C@H](C)NC(=O)[C@H](C)NC(=O)[C@H](CCC(N)=O)NC(=O)CNC(=O)[C@H](CCC(=O)O)NC(=O)[C@H](CC(C)C)NC(=O)[C@H](Cc1ccc(O)cc1)NC(=O)[C@H](CO)NC(=O)[C@H](CO)NC(=O)[C@@H](NC(=O)[C@H](CC(=O)O)NC(=O)[C@H](CO)NC(=O)[C@@H](NC(=O)[C@H](Cc1ccccc1)NC(=O)[C@@H](NC(=O)CNC(=O)[C@H](CCC(=O)O)NC(=O)[C@H](C)NC(=O)[C@@H](N)Cc1c[nH]cn1)[C@@H](C)O)[C@@H](C)O)C(C)C)C(=O)N[C@@H](CCC(=O)O)C(=O)N[C@@H](Cc1ccccc1)C(=O)N[C@H](C(=O)N[C@@H](C)C(=O)N[C@@H](Cc1c[nH]c2ccccc12)C(=O)N[C@@H](CC(C)C)C(=O)N[C@H](C(=O)N[C@@H](CCCNC(=N)N)C(=O)NCC(=O)N[C@@H](CCCNC(=N)N)C(=O)NCC(=O)O)C(C)C)[C@@H](C)CC)C(=O)O` [Liraglutide], the Emax at GCGR [1] is 84 ± 9.4%; at GCGR with RAMP2 [2] (setting [11]), “N.R”; on GCGR with RAMP2 [3] (GCGR + RAMP2, percentage of glucagon response without RAMP co-transfection), “N.R”; at GCGR [4], 80.1 ± 7.5%; on GCGR with RAMP2 [8] (setting [11]), “N.R”. Besides, the EC50 was 20 nM on GCGR [1] (Table 5, yeast GPA1/Gαi, GCGR + vector, mean ± S.E., five repeats, SEM); 3160 nM at GCGR [4] (Table 4, yeast GPA1/Gαs, GCGR + vector, mean ± S.E., five repeats, SEM); 10 nM on GCGR [6] (Table 3, cAMP, HEK-293, GCGR + vector, mean ± S.E., five repeats, SEM). For the same compound, the pEC50 result at GCGR with RAMP2 [2] (setting [9]) was “N.R”; at GCGR with RAMP2 [3] (HEK-293, GCGR + RAMP2, mean ± S.E., five repeats), “N.R”; on GCGR with RAMP2 [8] (setting [9]), “N.R”. In addition, the “log τ” value on GCGR with RAMP2 [2] (setting [10]) was “N.R”; on GCGR with RAMP2 [3] (GCGR + RAMP2, coupling efficiency, operational model relative to glucagon), “N.R”; on GCGR with RAMP2 [8] (setting [10]), “N.R”. Besides, the pKA entry at GCGR with RAMP2 [2] (setting [10]) is reported as “N.R”; at GCGR with RAMP2 [3] (GCGR + RAMP2, operational model for partial agonism relative to glucagon), “N.R”; on GCGR with RAMP2 [8] (setting [10]), “N.R”. Besides, the “affinity for the GCGR relative to the native peptide (glucagon)” value at GCGR [5] (whole cell competition binding) is on record as “higher affinity”. Further, the “binding to the GCGR in competition with glucagon” value on GCGR [5] (whole cells, [125I]glucagon 0.1 nM, 16 h at 4 °C) is “bound to the GCGR”. The “binding to the GCGR upon RAMP2 co-transfection” value at GCGR with RAMP2 [7] is reported as “failed to bind”.
For des-His^1-[Glu^9]glucagon(1–29) amide, the “effect of GCGR antagonist on GLP-1 and liraglutide signaling through the GCGR” value on GCGR [6] (cAMP, HEK-293 cells with GCGR) is recorded as “inhibited”.

In general, EC50 refers to the concentration that produces a half-maximal response.
